From US20230322789A1, “PYRAZOLOPYRIDAZINONE COMPOUND, AND PHARMACEUTICAL COMPOSITION AND USE THEREOF” (BroadenBio Co., Ltd., priority 2020, published 2023)
Counter-ions that a name gives are not always drawn.

Assays:
Human Jurkat-E6-1 cells = experiment: Measurement of IL-2 secretion of Jurkat cells by ELISA; assay type: cell-based; details: Homo sapiens, Jurkat E6.1, anti-CD3/anti-CD28 stimulation 24 hours, read-out: Percentage of the amount of IL-2 secreted from compound treated/DMSO-treated cells; for activity at 1 µM: test compound 1.0 μM; for activity at 3 µM: test compound 3.0 μM
Outline: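 Jurkat-E6-1 cells pre-incubated with compound for 30 min at 37° C, then stimulated 24 h with plate-bound anti-CD3 plus soluble anti-CD28. Secreted IL-2 in medium quantified by sandwich ELISA against a standard curve; expressed as percent of DMSO-treated cells.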

HPK1 = HPK1 (Homo sapiens (Human), UniProt Q92918); experiment: HPK1 kinase activity inhibition test (ADP-Glo, luminescence); assay type: biochemical; details: HPK1 5 nM, ATP 2 μM, read-out: IC50, inhibitory effects of compounds on HPK1 kinase activity
Sequence of HPK1 (Q92918 whole entry): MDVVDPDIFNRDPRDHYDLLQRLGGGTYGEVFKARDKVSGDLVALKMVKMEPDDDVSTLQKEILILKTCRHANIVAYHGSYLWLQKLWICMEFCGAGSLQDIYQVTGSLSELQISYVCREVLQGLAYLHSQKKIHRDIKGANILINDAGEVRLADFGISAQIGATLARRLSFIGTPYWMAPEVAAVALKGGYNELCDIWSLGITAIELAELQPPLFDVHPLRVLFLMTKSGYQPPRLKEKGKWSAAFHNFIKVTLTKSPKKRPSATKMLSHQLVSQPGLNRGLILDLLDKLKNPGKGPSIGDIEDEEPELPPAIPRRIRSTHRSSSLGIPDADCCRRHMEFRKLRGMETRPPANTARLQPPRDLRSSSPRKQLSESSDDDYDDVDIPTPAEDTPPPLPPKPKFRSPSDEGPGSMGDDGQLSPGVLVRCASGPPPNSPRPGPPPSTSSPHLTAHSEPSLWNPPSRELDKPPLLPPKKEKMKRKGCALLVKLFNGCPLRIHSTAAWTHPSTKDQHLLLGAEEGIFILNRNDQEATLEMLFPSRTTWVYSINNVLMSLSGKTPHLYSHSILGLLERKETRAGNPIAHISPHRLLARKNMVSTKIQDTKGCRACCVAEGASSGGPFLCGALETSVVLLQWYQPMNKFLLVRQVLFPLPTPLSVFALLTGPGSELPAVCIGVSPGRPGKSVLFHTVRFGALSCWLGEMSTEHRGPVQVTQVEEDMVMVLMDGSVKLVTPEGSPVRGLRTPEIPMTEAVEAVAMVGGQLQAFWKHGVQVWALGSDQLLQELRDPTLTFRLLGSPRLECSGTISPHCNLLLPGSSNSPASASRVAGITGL
Outline: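 HPK1 autophosphorylation was run without added substrate. Kinase and compound were preincubated 10 min at 25° C., then ATP was added for 60 min at 25° C. ADP formed was detected by ADP-Glo luminescence, and IC50 was taken from a four-parameter nonlinear fit.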

Row | IC50 (HPK1) | Structure (SMILES) | activity at 1 µM (Human Jurkat-E6-1 cells) | activity at 3 µM (Human Jurkat-E6-1 cells)
1 | 50 to 500 nM | Cc1cccc(F)c1-n1nc2c(-c3ccc(N4CCN(C)CC4)nc3)n[nH]c2cc1=O [Compound 11, 5-(2-fluoro-6-methylphenyl)-3-(6-(4-methylpiperazin-1-yl)pyrid-3-yl)-1H-pyrazolo[4,3-c]pyridazin-6(5H)-one] | 296% | 
2 | ≤ 50 nM | COc1cccc(F)c1-n1nc2c(-c3ccc(N4CCN(C)C(CO)C4)cc3)n[nH]c2cc1=O (stereo not drawn) [Compound 121, 5-(2-fluoro-6-methoxyphenyl)-3-(4-(3-(hydroxymethyl)-4-methylpiperazin-1-yl)phenyl)-1H-pyrazolo[4,3-c]pyridazin-6(5H)-one] |  | 459%
3 | ≤ 50 nM | COc1ccccc1-n1nc2c(-c3ccc(N4CCN(C)CC4)cc3)n[nH]c2cc1=O [Compound 3, 5-(2-methoxyphenyl)-3-(4-(4-methylpiperazin-1-yl)phenyl)-1H-pyrazolo[4,3-c]pyridazin-6(5H)-one] | 211% | 
4 | 50 to 500 nM | COc1cccc(C)c1-n1nc2c(-c3ccc(N4CCN(C)CC4)cc3)n[nH]c2cc1=O [Compound 2, 5-(2-methoxy-6-methylphenyl)-3-(4-(4-methylpiperazin-1-yl)phenyl)-1H-pyrazolo[4,3-c]pyridazin-6(5H)-one] |  | 238%
5 | 50 to 500 nM | COc1cccc(F)c1-n1nc2c(-c3cnn(C)c3)n[nH]c2cc1=O [Compound 21, 5-(2-fluoro-6-methoxyphenyl)-3-(1-methyl-1H-pyrazol-4-yl)-1H-pyrazolo[4,3-c]pyridazin-6(5H)-one] |  | 258%
6 | ≤ 50 nM | Cc1cccc(F)c1-n1nc2c(-c3ccc(N4CCN5CCOC[C@H]5C4)cc3)n[nH]c2cc1=O [Compound 134, (R)-5-(2-fluoro-6-methylphenyl)-3-(4-(hexahydropyrazino[2,1-c][1,4]oxazin-8(1H)-yl)phenyl)-1H-pyrazolo[4,3-c]pyridazin-6(5H)-one] |  | 527%
7 | ≤ 50 nM | CCc1cccc(F)c1-n1nc2c(-c3ccc4c(c3)CN(C)CC4)n[nH]c2cc1=O [Compound 160, 5-(2-ethyl-6-fluorophenyl)-3-(2-methyl-1,2,3,4-tetrahydroisoquinolin-7-yl)-1H-pyrazolo[4,3-c]pyridazin-6(5H)-one] |  | 354%

Continued, compound first:

Row | Structure (SMILES) | IC50 (HPK1) | activity at 1 µM (Human Jurkat-E6-1 cells) | activity at 3 µM (Human Jurkat-E6-1 cells)
8 | Cc1cccc(F)c1-n1nc2c(-c3ccc(N4CCN(C)CC4)c(F)c3)n[nH]c2cc1=O [Compound 94] | ≤ 50 nM |  | 414%
9 | Cc1cccc(F)c1-n1nc2c(-c3ccc4c(c3)CNCC4)n[nH]c2cc1=O [Compound 161, 5-(2-fluoro-6-methylphenyl)-3-(1,2,3,4-tetrahydroisoquinolin-7-yl)-1H-pyrazolo[4,3-c]pyridazin-6(5H)-one hydrochloride] | ≤ 50 nM |  | 393%
10 | CN1CCN(c2ccc(-c3n[nH]c4cc(=O)n(-c5ccccc5Cl)nc34)cc2)CC1 [Compound 7, 5-(2-chlorophenyl)-3-(4-(4-methylpiperazin-1-yl)phenyl)-1H-pyrazolo[4,3-c]pyridazin-6(5H)-one] | 50 to 500 nM | 314% | 
11 | COc1cc(C(=O)N(C)C)cc(F)c1-n1nc2c(-c3ccc(N4CCN(C)CC4)cc3)n[nH]c2cc1=O [Compound 80, 3-fluoro-5-methoxy-N,N-dimethyl-4-(3-(4-(4-methylpiperazin-1-yl)phenyl)-6-oxo-1H-pyrazolo[4,3-c]pyridazin-5(6H)-yl)benzamide] | ≤ 50 nM |  | 191%
12 | Cc1cccc(F)c1-n1nc2c(-c3ccc(N4CCC(N5CCN(C)CC5)CC4)cc3)n[nH]c2cc1=O [Compound 143, 5-(2-fluoro-6-methylphenyl)-3-(4-(4-(4-methylpiperazin-1-yl)piperidin-1-yl)phenyl)-1H-pyrazolo[4,3-c]pyridazin-6(5H)-one] | ≤ 50 nM |  | 786%
